Experimental data from article PMC11017395 (ACS Medicinal Chemistry Letters, 2024).
Converted amounts (≈) assume the structure as drawn. Like-named read-outs stand apart in the source and are kept apart here.

Experiments:
[1] = Turbidimetric kinetic aqueous solubility; type: physicochemical; conditions: turbidimetric method, PBS pH 7.4, read-out: Sol. (solubility)
Protocol: Aqueous Solubility. Solubility was measured from amorphous solid forms of the compounds using the turbidimetric method. Following the dissolution of test compound in DMSO to make a 10 mM stock solution, a pre-dilution plate was prepared by taking from each stock solution and serially […]
pre-dilution solution, secondary dilutions of the compounds in both DMSO and 0.01M pH 7.4 PBS were prepared in triplicate on a second 96-well plate. Wells in columns 1-6 would contain […]
(§1) nominal concentrations as those in DMSO. The final volume of solvent in each assay plate was 200 µl, prepared by pipetting 4 µl each of solution from the pre-dilution plate to the corresponding well into both DMSO and PBS (both 196 µL). This ensures that the final concentration of DMSO in the […]
(§2) Similarly, a second secondary plate containing
(§3) Different concentrations in DMSO were prepared as controls to determine false turbidimetric absorbance readings arising from the compounds in solution absorbing incident radiation at the test wavelength. Following preparation, the assay plate was covered and left to equilibrate for 2 h at 25 °C. Afterwards, UV-vis absorbance readings from the plate were measured at 620 nm using a SpectraMax 340PC384 microplate reader. Plots of corrected absorbance against compound concentration were computed for a graphical representation of the data using MS Excel. Reserpine and hydrocortisone were used as positive and negative controls, respectively.
(§4) In vitro Antiplasmodium Assay. The compounds were tested using the modified [3H]-hypoxanthine incorporation assay, as previously reported.1
(§5) In vitro Cytotoxicity Assay. Compounds were screened against Chinese Hamster Ovarian (CHO) mammalian cell lines, using the 3-(4,5-dimethylthiazol-2-yl)-2,5-diphenyltetrazoliumbromide […]
It was prepared to 2 mg/ml in distilled water, while the stock solutions of test compounds were prepared to 20 mg/ml in DMSO (100%), […]
lowest being 0.001 µg/ml. […]
of cell suspension in each well and developed afterward by adding 25 µl of sterile MTT (Thermo

hERG K+ channel = molecular target: T1, hERG K+ channel (Homo sapiens, UniProt Q12809); test: QPatch hERG assay; type: cell-based; conditions: CHO K1 cells stably expressing hERG
T1 construct: host or cells: CHO K1 (ATCC), stably expressing hERG
T1 sequence (Q12809 whole entry): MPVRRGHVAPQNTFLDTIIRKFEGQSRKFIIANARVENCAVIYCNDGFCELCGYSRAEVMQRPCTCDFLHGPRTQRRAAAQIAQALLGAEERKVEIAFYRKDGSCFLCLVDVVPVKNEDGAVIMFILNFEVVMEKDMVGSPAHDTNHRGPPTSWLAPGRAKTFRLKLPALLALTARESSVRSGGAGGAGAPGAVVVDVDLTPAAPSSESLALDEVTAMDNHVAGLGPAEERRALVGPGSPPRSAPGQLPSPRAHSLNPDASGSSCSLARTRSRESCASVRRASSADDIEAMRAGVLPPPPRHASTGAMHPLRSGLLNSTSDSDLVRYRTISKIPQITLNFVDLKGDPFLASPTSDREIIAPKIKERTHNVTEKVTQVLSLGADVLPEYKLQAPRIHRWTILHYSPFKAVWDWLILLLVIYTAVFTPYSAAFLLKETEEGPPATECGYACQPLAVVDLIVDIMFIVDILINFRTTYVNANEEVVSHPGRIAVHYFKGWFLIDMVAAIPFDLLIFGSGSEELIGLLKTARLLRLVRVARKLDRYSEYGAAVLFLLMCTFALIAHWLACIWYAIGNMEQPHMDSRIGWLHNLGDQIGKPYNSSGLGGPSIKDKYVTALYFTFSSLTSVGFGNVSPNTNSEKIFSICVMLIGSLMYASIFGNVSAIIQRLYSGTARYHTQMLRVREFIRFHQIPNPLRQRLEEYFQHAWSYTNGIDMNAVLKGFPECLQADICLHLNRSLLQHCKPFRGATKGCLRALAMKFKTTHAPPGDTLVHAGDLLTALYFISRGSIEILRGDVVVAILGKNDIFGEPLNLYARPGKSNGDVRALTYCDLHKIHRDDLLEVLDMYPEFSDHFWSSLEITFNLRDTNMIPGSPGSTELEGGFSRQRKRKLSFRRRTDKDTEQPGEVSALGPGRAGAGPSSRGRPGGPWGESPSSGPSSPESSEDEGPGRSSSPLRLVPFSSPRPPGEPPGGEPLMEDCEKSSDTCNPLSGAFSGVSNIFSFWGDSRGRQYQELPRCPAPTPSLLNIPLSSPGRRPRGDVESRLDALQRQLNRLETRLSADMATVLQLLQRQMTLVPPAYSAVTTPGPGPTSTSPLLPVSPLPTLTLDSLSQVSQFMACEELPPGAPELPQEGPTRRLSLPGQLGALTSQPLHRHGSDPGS
Protocol: In vitro Liver-stage Assay (P. berghei-sporozoite Infection). In a 24-well plate, HepG2 was seeded
employed as reference drugs. Negative control wells received medium only.
cells were trypsinized and the percentage (%) of infected cells was determined by flow cytometry
(BD LSRFortessa) using at least 10000 events. For determining host cell viability, in a 96-well plate,
h of incubation, a volume 100 µl of medium containing drugs was added and further incubated at 37
°C. Negative control wells received medium only and positive wells received gentian violet. After
Drugs were tested in five different concentrations, each one in

[2] = tested on: late-stage gametocytes (PfLGc), NF54-PfS16-GFP-Luc; test: Antigametocytic luciferase reporter assay, late stage; conditions: Plasmodium falciparum; for inhibition at 1 µM / inhibition at 5 µM: NF54, 48 h; for inhibition at 1 µM: read-out: Late gametocytes (LG) % activity, 1.0 µM; for inhibition at 5 µM: read-out: Late gametocytes (LG) % activity, 5.0 µM
Description: (§6) In vitro Antigametocytic Activity Assay. Gametocytes were produced as per the method reported by Reader and co-workers.3 The luciferase reporter assay was used to enable accurate, reliable and quantifiable investigations of the stage-specific action of gametocytocidal compounds for the early and late gametocyte marker cell line NF54-PfS16-GFP-Luc.
(§7) (representing >90% of either early stage II/III or mature/late stage IV/V gametocytes, respectively). […]
(§8) h drug pressure in a gas chamber (90% N 2, 5% O 2, and 5% CO 2) at 37 °C. Luciferase activity was determined in 30 µl parasite lysates by adding 30 µl luciferin substrate (Promega Luciferase Assay System) at room temperature and detection of resultant bioluminescence at an integration constant of 10s with the GloMax® Explorer Detection System with Instinct® Software. […]
(§9) µM) and internal project specific controls were included as controls. The dual point screens were performed as technical triplicates for a single biological assay.

[3] = tested on: immature-stage gametocytes (PfiGc), NF54-PfS16-GFP-Luc; test: Antigametocytic luciferase reporter assay, immature/early stage; conditions: Plasmodium falciparum; for inhibition at 1 µM / inhibition at 5 µM: NF54, 48 h; for inhibition at 1 µM: read-out: Early gametocytes (EG) % activity, 1.0 µM; for inhibition at 5 µM: read-out: Early gametocytes (EG) % activity, 5.0 µM
[4] = tested on: drug sensitive (NF54) strain of Pf; test: In vitro antiplasmodium assay, [3H]-hypoxanthine incorporation, NF54; type: cell-based, Plasmodium falciparum; conditions: for IC50: mean n ≥ 2
Protocol: All target compounds were evaluated for their antiplasmodium activity against the drug sensitive (NF54) strain of Pf and for turbidimetric kinetic solubility.
Aqueous Solubility. Solubility was measured from amorphous solid forms of the compounds using the turbidimetric method. Following the dissolution of test compound in DMSO to make a 10 mM stock solution, a pre-dilution plate was prepared by taking from each stock solution and serially diluting in triplicate to yield concentrations from 0.25 mM to 10.0 mM on a 96 well plate. From each pre-dilution solution, secondary dilutions of the compounds in both DMSO and 0.01M pH 7.4 PBS were prepared in triplicate on a second 96-well plate. Wells in columns 1-6 would contain […]
as §1, §2, §3, §4, §5

[5] = tested on: PfK1 multidrug resistant strain; test: microbe, parasite or virus in culture; type: cell-based, Plasmodium falciparum
P. berghei = conditions: in vivo, po
Protocol: In vivo Antiplasmodium Assay (Swiss TPH).
described,5 with the modification that mice (n = 3) were infected with a GFP -transfected P. berghei
ANKA strain (donated by A. P. Waters and C. J. Janse, Leiden University, The Netherlands), and
parasitemia was determined using standard flow cytometry techniques. The detection limit was 1
parasite in 1000 erythrocytes (that is, 0.1%). The activity was calculated as the difference between
the mean percent parasitemia for the control and treated groups expressed as a percent relative to the
control group. Compounds were dissolved or suspended in a vehicle consisting of 70% Tween -80
and 30% ethanol, followed by a 10 -fold dilution in H 2O and oral administration as four consecutive
Blood samples for the quadruple -dose regimens
The survival time in days was also recorded up to 30
days after infection. A compound was considered curative if the animal survived to day 30 after
infection with no detectable parasites by slide reading .

[6] = tested on: late-stages (IV – V) gametocytes; test: microbe, parasite or virus in culture; conditions: Plasmodium falciparum
Description: as §6, §7, §8, §9

With FC1CN(CCc2ccc(-c3noc(C(F)(F)F)n3)cc2)CCC1Nc1nc2ccccc2[nH]1 (stereo not drawn) [Compound 7] the solubility at 2 h ([1]; PBS buffer) was 120 µM (≈ 56.9 µg/mL), the IC50 at 4 min (hERG K+ channel; pH 7.4, QPatch, CHO K1 cells expressing hERG) was 980 nM and the selectivity ratio at 4 min (hERG K+ channel; pH 7.4, read-out: hERG SI (selectivity index = hERG IC50/PfNF54 IC50)) was 4.47. It also gave an inhibition at 1 µM [2] of 10.9 ± 2.3%, an inhibition at 5 µM [2] of 37.8 ± 0.5% and an IC50 ([2]; NF54, read-out: gametocytes IC50, late-stage (PfLGc / PfLG)) of 8000 nM. It also gave an inhibition at 1 µM [3] of 0%, an inhibition at 5 µM [3] of 27.6 ± 0.8% and an IC50 ([3]; NF54, read-out: gametocytes IC50, immature-stage (PfiGc / PfEG)) of 8160 nM.
With F[C@H]1CN(CCc2ccc(-c3noc(C(F)(F)F)n3)cc2)CC[C@@H]1Nc1nc2ccccc2[nH]1 [Compound 8] the “fold improvement of antiplasmodium activity over 7” value ([4]; PfNF54) was 1.5 fold, the IC50 ([4]; Plasmodium falciparum, NF54, read-out: PfIC50 NF54, sensitive NF54 strain) was 140 to 650 nM and the IC50 ([4]; read-out: PfIC50 NF54, sensitive NF54 strain) was 147 nM. The “RI (resistance index = PfK1 IC50/PfNF54 IC50)” value [5] was 2.61, the IC50 ([5]; Plasmodium falciparum, K1, read-out: PfIC50 K1) was 384 nM and the solubility at 2 h [1] was 100 µM (≈ 47.4 µg/mL).
Compound CN(C)c1ccc2nc3ccc(N(C)C)cc3[s+]c2c1 [methylene blue, reference compound] has an IC50 ([3]; NF54, read-out: gametocytes IC50, immature-stage (PfiGc / PfEG), stages I–III, n = 1, technical triplicate) of 200 nM.
COC(=O)[C@H]1[C@H]2C[C@@H]3c4[nH]c5cc(OC)ccc5c4CCN3C[C@H]2C[C@@H](OC(=O)c2cc(OC)c(OC)c(OC)c2)[C@@H]1OC [reserpine, reference compound] gave a solubility at 2 h [1] of less than 10 µM.
With CCN(CC)CCCC(C)Nc1ccnc2cc(Cl)ccc12 (stereo not drawn) [CQ, chloroquine] the “MSD (mean survival days)” value (P. berghei) was 24 days.
Compound COc1ccc(CCN2CCC(Nc3nc4ccccc4n3Cc3ccc(F)cc3)CC2)cc1 [AST, astemizole, reference compound] has an inhibition at 1 µM [2] of 0%, an inhibition at 5 µM [2] of 11% and an inhibition at 1 µM ([6]; read-out: Late gametocytes (LG) % activity, 1.0 µM) of 13%. For the same compound, the inhibition at 5 µM ([6]; read-out: Late gametocytes (LG) % activity, 5.0 µM) was 52%, the inhibition at 1 µM [3] was 5% and the inhibition at 5 µM [3] was 61%.
